For this assay, the system named is Balb/c to C57BL/6 skin graft. The assay can be described thus: Balb/c to C57BL/6 full-thickness skin graft survival. Conditions: oral, bid. The assay is classed as in vivo, mouse. As for the experimental part: Skin transplantation. Murine full-thickness allo-skin transplantation to study graft rejection was conducted according to a previously well-described protocol (Cheng et al, 2017). All procedures were conducted in accordance with the Guide for the Care and Use of Laboratory Animals of the National Institute of Health (NIH) and were approved by the animal ethics committee of Guangzhou University of Chinese Medicine.
Briefly, donor mice (Balb/c) were anesthetized with isoflurane (induction vaporizer at 4%, maintenance at 1-2% through the mouse cone). The toe pinch withdrawal reflex was used to monitor the depth of anesthesia. The back of the animal was shaved with an electric razor and disinfected with 10% povidone iodine. Using sterile scissors, gloves, and aseptic technique, donor back skin was harvested from the hip to the neck with blunt dissection at the level of the areolar connective tissue. After harvesting the skin graft, the animal was euthanized by cervical dislocation. Under a microscope, the connective tissue, fat tissue, and panniculus carnosus were separated from the back skin using fine tenotomy scissors. Using sterile technique, 15-mm×15-mm grafts were cut out from the back skin for a 10-mm×10-mm to 15-mm×15-mm graft bed (10 grafts were obtained from one donor mouse). The grafts were stored on gauze soaked with sterile phosphate-buffered saline (PBS) in a petri dish on ice.
The recipient mice (C57BL/6) were anesthetized with isoflurane. Buprenorphine (0.02 mg/kg) was administrated for postoperative pain relief. The side of the back of the animal where the graft will be inserted was shaved and disinfected with 10% povidone iodine. A 10-mm×10-mm to 15-mm×15-mm square of skin was intersected using scissors. The defect size was slightly larger (10%) than the graft. The graft was positioned on the graft bed avoiding folds along the edges. Eight sutures were placed on the corners and on the middle of each edge. […] When the graft was considered as successful, it was then monitored daily for signs of rejection. […]

Structures are written as SMILES.

For `COc1cc(O)c(OC)c(O)c1C(=O)/C=C/c1ccccc1` [2,4-D, 2′,4′-dihydroxy-3′,6′-dimethoxychalcone], the median graft survival runs as follows: (2 mg/kg) 15 days; (10 mg/kg) 19 days; (50 mg/kg) 24 days.

(Values after patent US20240335395A1, “COMPOSITIONS AND METHODS FOR PREVENTING AND/OR TREATING DISEASE ASSOCIATED WITH IL-23 EXPRESSION” (ALLSPIM, priority 2021, published 2024).)
